This note sets out measurements from ChEMBL document CHEMBL5653631, “A Potent and Selective ULK1 Inhibitor Suppresses Autophagy and Sensitizes Cancer Cells to Nutrient Stress” (iScience, 2018).

Assay [1] addresses Tyrosine-protein kinase HCK (Homo sapiens) (UniProt P08631). Description: Inhibition of human recombinant HCK at 15 nM in presence of ATP by radiometric assay relative to control.
For assay [2], the target named is Insulin-like growth factor 1 receptor (Homo sapiens) (UniProt P08069). Description: Inhibition of human recombinant IGF1R at 15 nM in presence of ATP by radiometric assay relative to control.
The target in assay [3] is Tau-tubulin kinase 2 (Homo sapiens) (UniProt Q6IQ55). The assay is described as follows: Inhibition of human recombinant TTBK2 at 15 nM in presence of ATP by radiometric assay relative to control.
For assay [4], the target named is Dual specificity protein kinase CLK2 (Homo sapiens) (UniProt P49760). The assay is described as follows: Inhibition of human recombinant CLK2 at 15 nM related to control ULK1.
In assay [5] the target is Tyrosine-protein kinase JAK2 (Homo sapiens) (UniProt O60674). The assay is described as follows: Inhibition of human recombinant JAK2 at 15 nM related to control ULK1.
The target in assay [6] is Dual specificity mitogen-activated protein kinase kinase 1 (Homo sapiens) (UniProt Q02750). Description: Inhibition of human recombinant MAP2K1 at 15 nM related to control ULK1.
Assay [7] concerns the target T1, Mitogen-activated protein kinase 13 (Homo sapiens) (UniProt O15264).
T1 sequence (whole entry): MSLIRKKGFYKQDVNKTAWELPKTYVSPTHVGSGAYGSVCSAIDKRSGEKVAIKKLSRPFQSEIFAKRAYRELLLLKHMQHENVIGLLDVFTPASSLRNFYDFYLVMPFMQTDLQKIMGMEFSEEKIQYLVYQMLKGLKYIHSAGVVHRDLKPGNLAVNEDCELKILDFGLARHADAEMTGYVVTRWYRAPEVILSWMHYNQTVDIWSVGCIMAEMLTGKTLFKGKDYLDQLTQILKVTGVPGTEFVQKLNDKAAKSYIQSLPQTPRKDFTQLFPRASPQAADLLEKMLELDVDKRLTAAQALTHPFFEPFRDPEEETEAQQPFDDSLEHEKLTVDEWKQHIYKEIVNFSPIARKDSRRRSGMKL
The assay is described as follows: Inhibition of human recombinant p38delta at 15 nM related to control ULK1.

The target in assay [8] is Serine/threonine-protein kinase PAK 5 (Homo sapiens) (UniProt Q9P286). Description: Inhibition of human recombinant PAK5 at 15 nM related to control ULK1.
Assay [9] addresses cAMP-dependent protein kinase catalytic subunit alpha (Homo sapiens) (UniProt P17612). Description: Inhibition of human recombinant PKACalpha at 15 nM related to control ULK1.
The target in assay [10] is T2, Interleukin-1 receptor-associated kinase 4 (Homo sapiens) (UniProt Q9NWZ3).
T2 sequence (whole entry): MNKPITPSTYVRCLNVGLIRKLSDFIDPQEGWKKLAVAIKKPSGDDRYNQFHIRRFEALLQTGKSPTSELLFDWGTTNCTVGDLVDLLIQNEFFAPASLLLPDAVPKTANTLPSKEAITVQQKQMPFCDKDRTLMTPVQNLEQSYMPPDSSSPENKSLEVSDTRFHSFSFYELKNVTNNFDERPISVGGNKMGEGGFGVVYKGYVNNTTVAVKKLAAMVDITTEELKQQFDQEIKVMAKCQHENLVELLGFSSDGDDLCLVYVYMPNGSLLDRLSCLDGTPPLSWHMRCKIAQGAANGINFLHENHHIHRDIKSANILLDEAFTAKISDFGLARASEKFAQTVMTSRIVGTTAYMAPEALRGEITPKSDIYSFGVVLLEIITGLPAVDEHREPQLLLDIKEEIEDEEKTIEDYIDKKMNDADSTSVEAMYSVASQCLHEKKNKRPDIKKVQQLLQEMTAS
Description: Inhibition of human recombinant IRAK4 at 40 nM in presence of ATP by radiometric assay relative to control.

In assay [11] the target is Vascular endothelial growth factor receptor 1 (Homo sapiens) (UniProt P17948). The assay is described as follows: Inhibition of human recombinant FLT1 at 40 nM related to control ULK1.
The target of assay [12] is Serine/threonine-protein kinase pim-3 (Homo sapiens) (UniProt Q86V86). The assay is described as follows: Inhibition of human recombinant PIM3 at 40 nM related to control ULK1.
Assay [13] addresses Casein kinase II subunit alpha' (Homo sapiens) (UniProt P19784). The assay is described as follows: Inhibition of human recombinant CK2a2 at 500 nM in presence of ATP by radiometric assay relative to control.
Assay [14] has as its target Mitogen-activated protein kinase kinase kinase 20 (Homo sapiens) (UniProt Q9NYL2). The assay is described as follows: Inhibition of human recombinant ZAK at 500 nM in presence of ATP by radiometric assay relative to control.
In assay [15] the target is RAC-beta serine/threonine-protein kinase (Homo sapiens) (UniProt P31751). Description: Inhibition of human recombinant AKT2 at 500 nM related to control ULK1.
Assay [16] concerns the target Receptor tyrosine-protein kinase erbB-2 (Homo sapiens) (UniProt P04626). The assay is described as follows: Inhibition of human recombinant ErbB2 at 500 nM related to control ULK1.
Assay [17] has as its target T3, Serine/threonine-protein kinase haspin (Homo sapiens) (UniProt Q8TF76).
T3 sequence (whole entry): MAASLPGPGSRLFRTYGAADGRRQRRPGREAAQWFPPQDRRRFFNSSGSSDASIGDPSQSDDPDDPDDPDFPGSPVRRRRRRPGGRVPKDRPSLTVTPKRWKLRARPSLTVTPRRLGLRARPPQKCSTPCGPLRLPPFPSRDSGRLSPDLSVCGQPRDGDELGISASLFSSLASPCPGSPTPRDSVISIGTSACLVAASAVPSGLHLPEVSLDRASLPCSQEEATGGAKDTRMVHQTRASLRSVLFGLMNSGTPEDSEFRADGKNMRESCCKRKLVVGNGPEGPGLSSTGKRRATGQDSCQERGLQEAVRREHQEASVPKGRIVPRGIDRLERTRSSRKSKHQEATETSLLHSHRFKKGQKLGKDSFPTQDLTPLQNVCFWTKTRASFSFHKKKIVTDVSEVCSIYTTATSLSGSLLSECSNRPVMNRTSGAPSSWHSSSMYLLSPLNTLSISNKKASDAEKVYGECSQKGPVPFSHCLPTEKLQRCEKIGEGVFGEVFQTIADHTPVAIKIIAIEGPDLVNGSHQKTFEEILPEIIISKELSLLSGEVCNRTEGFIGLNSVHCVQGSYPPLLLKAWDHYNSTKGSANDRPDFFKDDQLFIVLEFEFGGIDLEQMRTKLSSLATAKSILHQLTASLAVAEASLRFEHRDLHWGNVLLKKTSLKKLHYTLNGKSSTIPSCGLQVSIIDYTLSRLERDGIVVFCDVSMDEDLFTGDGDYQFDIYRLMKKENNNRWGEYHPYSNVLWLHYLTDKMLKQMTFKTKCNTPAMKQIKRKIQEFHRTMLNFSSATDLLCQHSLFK
Description: Inhibition of human recombinant Haspin at 500 nM related to control ULK1.

The target in assay [18] is Serine/threonine-protein kinase D2 (Homo sapiens) (UniProt Q9BZL6). The assay is described as follows: Inhibition of human recombinant PKD2 at 500 nM in presence of ATP by radiometric assay relative to control.
Serine/threonine-protein kinase D2 (Homo sapiens), sequence (Q9BZL6 whole entry, looked up): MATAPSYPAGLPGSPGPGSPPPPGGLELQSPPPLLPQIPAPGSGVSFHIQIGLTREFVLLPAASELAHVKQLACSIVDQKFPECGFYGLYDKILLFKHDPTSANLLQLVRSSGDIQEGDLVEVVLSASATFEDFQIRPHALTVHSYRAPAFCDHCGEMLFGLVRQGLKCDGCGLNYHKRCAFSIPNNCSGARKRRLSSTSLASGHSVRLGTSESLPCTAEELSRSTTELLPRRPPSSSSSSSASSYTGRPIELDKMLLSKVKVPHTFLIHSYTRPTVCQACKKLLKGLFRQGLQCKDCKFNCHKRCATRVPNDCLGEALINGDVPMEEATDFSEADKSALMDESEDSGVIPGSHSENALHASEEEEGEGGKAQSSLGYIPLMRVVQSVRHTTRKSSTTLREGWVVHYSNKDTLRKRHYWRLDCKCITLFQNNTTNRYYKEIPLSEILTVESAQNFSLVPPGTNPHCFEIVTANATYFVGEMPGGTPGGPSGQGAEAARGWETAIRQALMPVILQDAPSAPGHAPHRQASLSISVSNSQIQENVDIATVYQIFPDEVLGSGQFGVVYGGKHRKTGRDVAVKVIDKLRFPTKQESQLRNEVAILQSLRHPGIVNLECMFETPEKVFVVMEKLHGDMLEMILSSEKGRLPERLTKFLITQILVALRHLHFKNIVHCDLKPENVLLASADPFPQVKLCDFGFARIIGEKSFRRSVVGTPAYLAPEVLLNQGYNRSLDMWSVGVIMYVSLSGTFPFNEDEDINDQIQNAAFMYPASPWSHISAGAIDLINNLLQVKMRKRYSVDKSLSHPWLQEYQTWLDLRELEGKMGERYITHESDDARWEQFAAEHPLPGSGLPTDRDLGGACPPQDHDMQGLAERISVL

Vascular endothelial growth factor receptor 1 (Homo sapiens), sequence (P17948 whole entry): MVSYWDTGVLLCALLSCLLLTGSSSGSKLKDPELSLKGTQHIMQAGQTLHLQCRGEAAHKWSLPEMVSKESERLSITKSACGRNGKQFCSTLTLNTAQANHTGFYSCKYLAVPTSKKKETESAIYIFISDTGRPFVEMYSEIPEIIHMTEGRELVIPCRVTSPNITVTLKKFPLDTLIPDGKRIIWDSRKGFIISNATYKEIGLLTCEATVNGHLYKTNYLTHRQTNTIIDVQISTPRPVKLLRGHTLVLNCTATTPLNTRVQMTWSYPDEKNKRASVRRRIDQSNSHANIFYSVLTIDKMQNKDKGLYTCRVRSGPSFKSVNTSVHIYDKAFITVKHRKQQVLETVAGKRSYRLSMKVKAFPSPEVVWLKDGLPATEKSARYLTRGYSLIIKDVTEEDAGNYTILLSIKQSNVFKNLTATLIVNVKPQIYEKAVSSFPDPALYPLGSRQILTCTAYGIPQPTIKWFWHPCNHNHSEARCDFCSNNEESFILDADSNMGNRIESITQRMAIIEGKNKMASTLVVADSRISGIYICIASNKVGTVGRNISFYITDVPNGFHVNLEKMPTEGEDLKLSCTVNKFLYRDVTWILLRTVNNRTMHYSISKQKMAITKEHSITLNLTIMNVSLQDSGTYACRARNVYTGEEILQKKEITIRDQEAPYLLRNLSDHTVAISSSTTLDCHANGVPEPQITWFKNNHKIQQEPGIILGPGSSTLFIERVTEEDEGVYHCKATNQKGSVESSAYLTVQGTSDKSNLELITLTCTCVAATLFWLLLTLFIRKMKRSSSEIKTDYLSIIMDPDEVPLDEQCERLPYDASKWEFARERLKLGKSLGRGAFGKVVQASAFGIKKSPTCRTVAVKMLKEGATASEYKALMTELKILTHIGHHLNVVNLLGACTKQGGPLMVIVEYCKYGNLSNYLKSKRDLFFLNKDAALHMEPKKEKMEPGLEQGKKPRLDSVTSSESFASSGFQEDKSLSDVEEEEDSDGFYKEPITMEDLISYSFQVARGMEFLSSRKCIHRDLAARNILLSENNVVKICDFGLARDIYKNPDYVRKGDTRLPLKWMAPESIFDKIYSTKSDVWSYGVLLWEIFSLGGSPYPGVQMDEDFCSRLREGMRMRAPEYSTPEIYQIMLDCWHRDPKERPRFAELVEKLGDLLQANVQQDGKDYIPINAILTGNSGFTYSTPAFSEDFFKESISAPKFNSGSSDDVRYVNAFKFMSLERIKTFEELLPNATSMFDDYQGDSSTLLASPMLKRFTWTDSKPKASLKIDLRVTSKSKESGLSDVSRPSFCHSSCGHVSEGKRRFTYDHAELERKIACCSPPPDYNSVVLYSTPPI
Receptor tyrosine-protein kinase erbB-2 (Homo sapiens), sequence (P04626 whole entry): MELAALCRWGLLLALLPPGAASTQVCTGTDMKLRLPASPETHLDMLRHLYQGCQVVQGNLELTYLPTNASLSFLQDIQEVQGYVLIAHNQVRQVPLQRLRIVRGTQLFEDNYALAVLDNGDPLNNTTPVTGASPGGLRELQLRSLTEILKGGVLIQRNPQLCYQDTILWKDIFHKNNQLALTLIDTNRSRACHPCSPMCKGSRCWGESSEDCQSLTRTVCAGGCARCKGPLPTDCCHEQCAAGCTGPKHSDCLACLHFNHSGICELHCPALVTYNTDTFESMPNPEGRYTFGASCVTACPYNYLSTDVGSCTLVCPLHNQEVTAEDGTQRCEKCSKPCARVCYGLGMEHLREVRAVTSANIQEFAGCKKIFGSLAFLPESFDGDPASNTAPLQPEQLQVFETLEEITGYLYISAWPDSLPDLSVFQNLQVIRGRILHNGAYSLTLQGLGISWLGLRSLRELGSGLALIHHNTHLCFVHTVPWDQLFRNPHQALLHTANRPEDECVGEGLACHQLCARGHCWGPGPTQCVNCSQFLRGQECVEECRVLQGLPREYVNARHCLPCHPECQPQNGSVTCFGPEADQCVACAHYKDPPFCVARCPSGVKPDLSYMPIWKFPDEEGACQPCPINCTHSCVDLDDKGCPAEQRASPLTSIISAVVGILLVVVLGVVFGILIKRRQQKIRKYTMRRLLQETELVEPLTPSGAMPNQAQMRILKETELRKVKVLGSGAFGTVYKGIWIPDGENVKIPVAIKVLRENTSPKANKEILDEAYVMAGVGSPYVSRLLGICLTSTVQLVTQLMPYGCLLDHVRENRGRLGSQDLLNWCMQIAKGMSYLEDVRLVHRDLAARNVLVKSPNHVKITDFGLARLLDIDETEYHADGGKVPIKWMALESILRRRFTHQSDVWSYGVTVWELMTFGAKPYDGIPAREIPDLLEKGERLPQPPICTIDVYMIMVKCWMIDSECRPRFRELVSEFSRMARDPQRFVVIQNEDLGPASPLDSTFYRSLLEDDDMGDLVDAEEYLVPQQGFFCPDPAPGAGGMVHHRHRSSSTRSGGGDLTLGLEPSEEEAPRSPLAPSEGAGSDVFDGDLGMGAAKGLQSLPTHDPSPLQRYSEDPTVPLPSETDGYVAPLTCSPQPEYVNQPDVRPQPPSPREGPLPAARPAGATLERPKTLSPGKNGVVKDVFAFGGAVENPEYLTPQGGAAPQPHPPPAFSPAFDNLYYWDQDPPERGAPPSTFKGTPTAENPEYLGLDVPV
RAC-beta serine/threonine-protein kinase (Homo sapiens), sequence (P31751 whole entry): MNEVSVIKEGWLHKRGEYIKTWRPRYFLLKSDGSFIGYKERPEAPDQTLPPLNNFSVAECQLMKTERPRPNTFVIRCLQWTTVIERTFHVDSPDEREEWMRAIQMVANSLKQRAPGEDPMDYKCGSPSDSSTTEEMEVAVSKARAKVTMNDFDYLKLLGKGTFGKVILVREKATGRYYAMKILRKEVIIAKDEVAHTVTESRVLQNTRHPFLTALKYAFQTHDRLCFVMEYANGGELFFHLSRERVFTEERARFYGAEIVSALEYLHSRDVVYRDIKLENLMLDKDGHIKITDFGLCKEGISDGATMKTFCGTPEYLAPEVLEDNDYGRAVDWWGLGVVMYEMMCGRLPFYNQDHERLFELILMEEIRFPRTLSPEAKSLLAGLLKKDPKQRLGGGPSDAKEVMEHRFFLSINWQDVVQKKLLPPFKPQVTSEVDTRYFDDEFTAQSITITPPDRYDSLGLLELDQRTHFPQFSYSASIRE
Serine/threonine-protein kinase PAK 5 (Homo sapiens), sequence (Q9P286 whole entry, looked up): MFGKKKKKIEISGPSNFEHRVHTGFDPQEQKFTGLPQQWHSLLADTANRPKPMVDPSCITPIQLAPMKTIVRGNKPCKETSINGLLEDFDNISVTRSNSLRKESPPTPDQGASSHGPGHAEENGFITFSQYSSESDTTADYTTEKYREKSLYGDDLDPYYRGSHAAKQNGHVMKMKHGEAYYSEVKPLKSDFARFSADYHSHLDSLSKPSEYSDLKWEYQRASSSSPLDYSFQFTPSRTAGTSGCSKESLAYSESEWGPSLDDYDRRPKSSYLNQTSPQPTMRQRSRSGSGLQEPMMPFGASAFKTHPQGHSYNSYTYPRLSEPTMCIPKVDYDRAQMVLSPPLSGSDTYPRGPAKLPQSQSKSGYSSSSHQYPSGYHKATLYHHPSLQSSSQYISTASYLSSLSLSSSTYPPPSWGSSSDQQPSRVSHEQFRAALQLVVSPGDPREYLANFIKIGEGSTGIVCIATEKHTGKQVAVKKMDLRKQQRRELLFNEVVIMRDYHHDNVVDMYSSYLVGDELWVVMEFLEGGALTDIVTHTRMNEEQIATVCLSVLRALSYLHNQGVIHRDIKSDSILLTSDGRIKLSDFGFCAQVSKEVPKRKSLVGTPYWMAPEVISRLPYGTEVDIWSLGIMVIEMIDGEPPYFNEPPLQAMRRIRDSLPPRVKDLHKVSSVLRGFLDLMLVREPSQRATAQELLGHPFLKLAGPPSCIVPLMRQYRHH

Regarding `CC(C)[C@H](NC(=O)c1cc(-c2cnn3cc(-c4ccc(OCCN5CCCCC5)cc4)cnc23)cs1)C(F)(F)F`, the results for the inhibition in assay [1], in [2] and in assay [3] were 26%, 0% and 0%, respectively. Further, the fold change (FC) is 0.33 in assay [4]; 0.07 in assay [5]; 0.08 in assay [6]; 0.07 in assay [7]; 0 in [8]; 0 in assay [9].
`O=C(N[C@@H](C1CC1)C(F)(F)F)c1cc(-c2cnn3cc(-c4ccc(F)cc4)cnc23)cs1`: the inhibition in assay [10] came out at 0%. In addition, the fold change (FC) in assay [11] worked out at 0.25; in assay [12], 0.
Take `CNC(=O)c1ccccc1Oc1nc(Nc2cc(OC)c(OC)c(OC)c2)ncc1Br`: the figures for the inhibition in assay [13], in [14] and in assay [18] were 5%, 1% and 12%, respectively. The fold change (FC) in assay [15] was determined as 0.09; in assay [16], 0; in [17], 0.
